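48-hour exposure; five concentrations; linearly interpolated endpoints. Abbreviation: GI50, concentration required for 50% inhibition of growth.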 Calls of active or inactive are those of the source. No stated cut-off is given here; in the data, active = GI50 up to about 1.1 µM and inactive = higher.
Tests used:
Test in all cases: growth of human tumour cells (NCI), 48 h
[1] = test system: K562
[2] = test system: ACHN
[3] = test system: U-251
[4] = test system: CCRF-CEM
[5] = test system: OVCAR-5
[6] = test system: OVCAR-3
[7] = test system: SF-539
[8] = test system: SNB-19
[9] = test system: SR
[10] = test system: SF-268
[11] = test system: RXF 393
[12] = test system: NCI-H460
[13] = test system: UO-31
[14] = test system: HCT-15
[15] = test system: M14
[16] = test system: EKVX
[17] = test system: RPMI-8226
[18] = test system: CAKI-1
[19] = test system: HOP-92
[20] = test system: NCI-H226

Compound	GI50 [1]	GI50 [2]	GI50 [3]	GI50 [4]	GI50 [5]	GI50 [6]	GI50 [7]	GI50 [8]	GI50 [9]	GI50 [10]	GI50 [11]	GI50 [12]	GI50 [13]	GI50 [14] [µM]	GI50 [15]	GI50 [16]	GI50 [17]	GI50 [18]	GI50 [19]	GI50 [20]
Cc1cccc(NC(N)=S)c1	> 100 µM (inactive)	> 100 µM (inactive)	> 100 µM (inactive)	> 100 µM (inactive)	> 100 µM (inactive)	> 100 µM (inactive)	> 100 µM (inactive)	> 100 µM (inactive)	> 100 µM (inactive)	> 100 µM (inactive)	> 100 µM (inactive)	> 100 µM (inactive)	> 100 µM (inactive)	> 100	> 100 µM (inactive)	> 100 µM (inactive)	–	–	–	–
C#CCNC(=O)CCC(N)C(=O)O (centres undefined)	> 100 µM (inactive)	–	> 100 µM (inactive)	> 100 µM (inactive)	> 100 µM (inactive)	> 100 µM (inactive)	> 100 µM (inactive)	> 100 µM (inactive)	–	> 100 µM (inactive)	> 100 µM (inactive)	> 100 µM (inactive)	> 100 µM (inactive)	> 100	–	> 100 µM (inactive)	> 100 µM (inactive)	> 100 µM (inactive)	> 100 µM (inactive)	> 100 µM (inactive)
COc1c2c(c3ccccc3c1O)C1C=CC2C1 (centres undefined)	3.85 µM (inactive)	14.4 µM (inactive)	11.7 µM (inactive)	4.72 µM (inactive)	18.7 µM (inactive)	14.5 µM (inactive)	14.6 µM (inactive)	> 10 µM (inactive)	21 µM (inactive)	17.7 µM (inactive)	15.5 µM (inactive)	18.5 µM (inactive)	5.35 µM (inactive)	10	14.7 µM (inactive)	18.8 µM (inactive)	> 100 µM (inactive)	17.1 µM (inactive)	–	> 10 µM (inactive)
COc1ccc(-c2c3c(nc4[nH]c(=S)[nH]c(=S)c24)CCCC3)cc1OC	30 µM (inactive)	51.1 µM (inactive)	18.4 µM (inactive)	28.5 µM (inactive)	28.8 µM (inactive)	52.1 µM (inactive)	15.3 µM (inactive)	34.3 µM (inactive)	27.9 µM (inactive)	31 µM (inactive)	11.9 µM (inactive)	18.5 µM (inactive)	14.6 µM (inactive)	30.1	28.6 µM (inactive)	22.4 µM (inactive)	21 µM (inactive)	34.7 µM (inactive)	–	–
COP(=O)(OC)C(Cc1c[nH]c2ccccc12)NC(=O)OCc1ccccc1 (centres undefined)	> 100 µM (inactive)	> 100 µM (inactive)	> 100 µM (inactive)	5.89 µM (inactive)	> 100 µM (inactive)	40.5 µM (inactive)	–	> 100 µM (inactive)	> 100 µM (inactive)	–	–	> 100 µM (inactive)	> 100 µM (inactive)	> 100	> 100 µM (inactive)	–	> 100 µM (inactive)	> 100 µM (inactive)	> 100 µM (inactive)	> 100 µM (inactive)
BrC(/C=N/Nc1nnc(-c2ccccc2)c(-c2ccccc2)n1)C(Br)c1ccccc1 (centres undefined)	22.6 µM (inactive)	31 µM (inactive)	28.2 µM (inactive)	24.9 µM (inactive)	51.5 µM (inactive)	35.7 µM (inactive)	28.4 µM (inactive)	64.4 µM (inactive)	–	29.2 µM (inactive)	25.1 µM (inactive)	35.2 µM (inactive)	19.7 µM (inactive)	28.7	21.6 µM (inactive)	29.9 µM (inactive)	14.4 µM (inactive)	30.7 µM (inactive)	20.3 µM (inactive)	20.4 µM (inactive)
C[C@H](N)C(=O)N[C@@H]1[C@H]2C(=C(O)C[C@@H](O)[C@@H]2O)C(=O)O[C@@H]1C	> 100 µM (inactive)	–	> 100 µM (inactive)	> 53.8 µM (inactive)	> 100 µM (inactive)	> 100 µM (inactive)	> 100 µM (inactive)	77.4 µM (inactive)	–	> 100 µM (inactive)	> 100 µM (inactive)	> 100 µM (inactive)	> 100 µM (inactive)	> 100	–	> 100 µM (inactive)	> 100 µM (inactive)	> 100 µM (inactive)	> 100 µM (inactive)	> 100 µM (inactive)
COC1=C(C)C(=O)C2=C(C1=O)[C@@H]1[C@@H]3Cc4c(OC(=O)CO)c(C)c(OC)c(O)c4[C@H](CNC(=O)C(C)=O)N3[C@@H](C#N)[C@H](C2)N1C	< 0.01 µM (active)	–	0.029 µM (active)	0.0271 µM (active)	0.098 µM (active)	< 0.0153 µM (active)	0.0528 µM (active)	0.0414 µM (active)	–	0.0552 µM (active)	0.0184 µM (active)	0.107 µM (active)	0.0738 µM (active)	< 0.01	–	< 0.0405 µM (active)	< 0.0142 µM (active)	< 0.01 µM (active)	< 0.0119 µM (active)	0.0871 µM (active)
Cc1cc(O)nc(NN2C(Cl)C(=O)C2c2ccco2)n1 (centres undefined)	29.7 µM (inactive)	28.2 µM (inactive)	30.5 µM (inactive)	8.2 µM (inactive)	> 100 µM (inactive)	15.2 µM (inactive)	22.6 µM (inactive)	32 µM (inactive)	28.4 µM (inactive)	29.4 µM (inactive)	13 µM (inactive)	24.6 µM (inactive)	23.1 µM (inactive)	31.6	33.8 µM (inactive)	87.5 µM (inactive)	16.3 µM (inactive)	–	25.1 µM (inactive)	–
CCOC(=O)C1=C(C)N(c2ccc(Cl)cc2)C2(O)C=CC(Nc3ccc(Cl)cc3)=C3C(=O)N(c4ccccc4)C(=O)C312 (centres undefined)	3.23 µM (inactive)	6.75 µM (inactive)	4.85 µM (inactive)	1.64 µM (inactive)	3.96 µM (inactive)	0.313 µM (active)	3.87 µM (inactive)	5.68 µM (inactive)	2.88 µM (inactive)	2.4 µM (inactive)	–	2.11 µM (inactive)	4.89 µM (inactive)	3.45	3.13 µM (inactive)	–	1.32 µM (inactive)	1.87 µM (inactive)	0.791 µM (active)	–
CC1=Nc2nc(Cl)cn2C(=O)C1(Cl)Cl	> 10 µM (inactive)	> 10 µM (inactive)	> 10 µM (inactive)	> 10 µM (inactive)	> 10 µM (inactive)	> 10 µM (inactive)	> 10 µM (inactive)	> 10 µM (inactive)	> 10 µM (inactive)	> 10 µM (inactive)	> 10 µM (inactive)	> 10 µM (inactive)	> 10 µM (inactive)	> 10	> 10 µM (inactive)	> 10 µM (inactive)	> 10 µM (inactive)	> 10 µM (inactive)	–	> 10 µM (inactive)
C/C(N)=N/OCc1nc(C)no1	> 100 µM (inactive)	> 100 µM (inactive)	> 100 µM (inactive)	> 100 µM (inactive)	–	> 100 µM (inactive)	> 100 µM (inactive)	> 100 µM (inactive)	> 100 µM (inactive)	> 100 µM (inactive)	> 100 µM (inactive)	> 100 µM (inactive)	> 100 µM (inactive)	> 100	> 100 µM (inactive)	> 100 µM (inactive)	> 100 µM (inactive)	> 100 µM (inactive)	–	–
COc1ccc([C@@H]2ON(C)[C@H]3CN(C)C(=O)[C@@H]23)cc1	> 100 µM (inactive)	> 100 µM (inactive)	> 100 µM (inactive)	> 100 µM (inactive)	> 100 µM (inactive)	> 100 µM (inactive)	–	> 100 µM (inactive)	> 100 µM (inactive)	–	–	> 100 µM (inactive)	> 100 µM (inactive)	> 100	> 100 µM (inactive)	–	> 100 µM (inactive)	> 100 µM (inactive)	> 100 µM (inactive)	> 100 µM (inactive)
CC12CCC(C(=O)OC1=O)C(C)(C)O2 (centres undefined)	> 100 µM (inactive)	> 100 µM (inactive)	> 100 µM (inactive)	> 100 µM (inactive)	> 100 µM (inactive)	> 100 µM (inactive)	> 100 µM (inactive)	> 100 µM (inactive)	–	> 100 µM (inactive)	> 100 µM (inactive)	> 100 µM (inactive)	> 100 µM (inactive)	–	> 100 µM (inactive)	> 100 µM (inactive)	> 100 µM (inactive)	> 100 µM (inactive)	> 100 µM (inactive)	> 100 µM (inactive)
CC1[C@@]2(O[C@@H]3C=C4C5CCC6Cc7nc8c(nc7C[C@@]6(C)C5C[C@H](O)[C@@]4(C)[C@]13O)CC1CCc3c(cc4c5c3C(O)C[C@H]5[C@@H](C)C3(O4)OC(C)(C)CC3O)[C@]1(C)C8)O[C@@](C)(CO)C[C@@H]2O (some centres undefined)	0.259 µM (active)	–	0.0759 µM (active)	0.164 µM (active)	0.618 µM (active)	1.32 µM (inactive)	0.173 µM (active)	1.38 µM (inactive)	–	0.191 µM (active)	0.0418 µM (active)	0.126 µM (active)	1.39 µM (inactive)	0.914	–	0.146 µM (active)	0.0604 µM (active)	0.659 µM (active)	–	0.185 µM (active)
Nc1ccn(C2OC(CO)C(O)C2O)c(=O)c1 (centres undefined)	–	–	> 625 µM (inactive)	> 625 µM (inactive)	–	> 625 µM (inactive)	186 µM (inactive)	> 625 µM (inactive)	–	> 625 µM (inactive)	348 µM (inactive)	38.7 µM (inactive)	360 µM (inactive)	> 625	–	–	174 µM (inactive)	176 µM (inactive)	279 µM (inactive)	> 625 µM (inactive)

— ChEMBL document CHEMBL1201862, “PubChem BioAssay data set” (2004)
